The values that follow come from US10065990B2, “Cyclic peptide compound, and preparation method, pharmaceutical composition and use thereof” (HANGZHOU GUANYU BIO-MEDICAL CO., LTD, priority 2013, dated 2018).

In one experiment the target is T1, HDAC7 (Homo sapiens, UniProt Q8WUI4).
T1 sequence (Q8WUI4 1-952): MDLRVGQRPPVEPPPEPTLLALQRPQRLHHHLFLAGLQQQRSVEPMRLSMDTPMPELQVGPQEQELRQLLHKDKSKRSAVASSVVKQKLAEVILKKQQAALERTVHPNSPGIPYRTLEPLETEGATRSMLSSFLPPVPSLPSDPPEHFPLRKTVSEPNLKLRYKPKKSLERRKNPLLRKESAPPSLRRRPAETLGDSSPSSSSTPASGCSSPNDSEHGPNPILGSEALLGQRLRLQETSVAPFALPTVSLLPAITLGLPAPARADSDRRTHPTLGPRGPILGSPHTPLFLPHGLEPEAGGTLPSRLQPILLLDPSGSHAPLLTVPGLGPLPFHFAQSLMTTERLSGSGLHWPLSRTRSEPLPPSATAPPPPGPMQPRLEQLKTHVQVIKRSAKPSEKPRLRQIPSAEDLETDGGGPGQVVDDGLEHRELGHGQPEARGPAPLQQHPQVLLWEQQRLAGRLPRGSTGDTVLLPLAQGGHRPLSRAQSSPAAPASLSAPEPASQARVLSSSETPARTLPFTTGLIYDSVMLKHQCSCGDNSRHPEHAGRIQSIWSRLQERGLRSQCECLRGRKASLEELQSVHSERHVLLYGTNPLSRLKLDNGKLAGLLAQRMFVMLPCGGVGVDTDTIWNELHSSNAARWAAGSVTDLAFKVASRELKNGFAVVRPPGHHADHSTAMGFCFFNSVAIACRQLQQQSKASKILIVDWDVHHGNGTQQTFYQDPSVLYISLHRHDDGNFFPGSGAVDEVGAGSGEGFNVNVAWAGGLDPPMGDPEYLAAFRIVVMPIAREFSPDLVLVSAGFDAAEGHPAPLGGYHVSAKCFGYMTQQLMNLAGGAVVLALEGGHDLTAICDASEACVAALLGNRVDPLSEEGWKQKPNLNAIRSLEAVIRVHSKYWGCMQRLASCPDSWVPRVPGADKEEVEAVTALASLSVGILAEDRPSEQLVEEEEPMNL
Put plainly: HDAC biochemical activity measurement (fluorescent substrate deacetylation).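 On all read-outs here: fluorogenic deacetylation assay using acetyl-lysine substrate at 20 µM, enzyme and compound incubated 30 min at 37 °C, then developer added, fluorescence read at 360/460 nm.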 Particulars: for IC50 HDAC7: 37° C. 30 minutes.

Experiment [1] has as its system A549 (human lung cancer cells). The experiment is described as follows: MTT cancer cell growth inhibition. Type of experiment: cell-based. The settings on record: Homo sapiens, A549, 72 h, A549 cells, MTT, 72 hours incubation; read-out: GI50 A54. In a few lines:
(§1)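 GI50 values come from viability measured by MTT reduction at 570 nm. Plated overnight at 1500 cells per well, cultures received drug in three parallel wells across 10^−5–10^−10 M final and were incubated 72 h at 37° C. under 5% CO2 before MTT for 4 h.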

Experiment [2] deals with BGC-823 (human gastric cancer cells). The experiment is described as follows: MTT cancer cell growth inhibition. Type of experiment: cell-based. The settings on record: Homo sapiens, BGC-823, 72 h, BGC-823 cells, MTT, 72 hours incubation; read-out: GI50 BG. In a few lines: as §1
The test system of experiment [3] is Bel-7402 (human hepatoma cells). The experiment is described as follows: MTT cancer cell growth inhibition. The settings on record: Homo sapiens, Bel-7402, 72 h, MTT, 72 hours incubation, Bel-7402 cells; read-out: GI50 Bel-7402. Type of experiment: cell-based. In a few lines: as §1
In experiment [4] the test system is DU145 (human prostate cancer cells). Put plainly: MTT cancer cell growth inhibition. Type of experiment: cell-based. Particulars: Homo sapiens, DU-145, 72 h, DU145 cells, MTT, 72 hours incubation; read-out: GI50 Du1. In short, it runs like this: as §1
Experiment [5] concerns H1975 (non-small cell lung adenocarcinoma). The experiment is described as follows: MTT cancer cell growth inhibition. Type of experiment: cell-based. Particulars: Homo sapiens, NCI-H1975, 72 h, MTT, 72 hours incubation, H1975 cells; read-out: GI50 H1975. In short, it runs like this: as §1
In experiment [6] the test system is HCC827 (human non-small cell lung cancer cells). Put plainly: MTT cancer cell growth inhibition. It is filed as cell-based. Particulars: Homo sapiens, HCC827, 72 h, MTT, 72 hours incubation, HCC827 cells; read-out: GI50 HCC827. In short, it runs like this: as §1
For experiment [7], the system named is HT1080 (human fibrosarcoma cells). Put plainly: MTT cancer cell growth inhibition. It is filed as cell-based. Particulars: Homo sapiens, HT-1080, 72 h, HT1080 cells, MTT, 72 hours incubation; read-out: GI50 HT1. In short, it runs like this: as §1
Experiment [8] relates to Hela (human cervical cancer cells). The experiment is described as follows: MTT cancer cell growth inhibition. Particulars: Homo sapiens, HeLa, 72 h, Hela cells, MTT, 72 hours incubation; read-out: GI50 Hela. Type of experiment: cell-based. In short, it runs like this: as §1
Experiment [9] relates to Huh-7 (human hepatoma cells). Put plainly: MTT cancer cell growth inhibition. It is filed as cell-based. Particulars: Homo sapiens, Huh-7, 72 h, MTT, 72 hours incubation, Huh-7 cells; read-out: GI50 Huh-7. In a few lines: as §1
Experiment [10] relates to K562 (human leukemia cells). The experiment is described as follows: MTT cancer cell growth inhibition. Particulars: Homo sapiens, K562, 72 h, MTT, 72 hours incubation, K562 cells; read-out: GI50 K562. It is filed as cell-based. In short, it runs like this: as §1
Experiment [11] deals with KBM-5 (human chronic myelogenous leukemia). Put plainly: MTT cancer cell growth inhibition. The settings on record: Homo sapiens, KBM5, 72 h, MTT, 72 hours incubation, KBM-5 cells; read-out: GI50 KBM-5. Type of experiment: cell-based. In a few lines: as §1
Experiment [12] deals with KBM5-T315I (human chronic myelogenous leukemia). The experiment is described as follows: MTT cancer cell growth inhibition. It is filed as cell-based. Particulars: Homo sapiens, 72 h, MTT, 72 hours incubation, KBM5-T315I cells; read-out: GI50 KBM5-T315I. In short, it runs like this: as §1
In experiment [13] the test system is MCF-7 (human breast cancer cells). The experiment is described as follows: MTT cancer cell growth inhibition. Particulars: Homo sapiens, MCF7, 72 h, MCF-7 cells, 72 hours incubation, read-out: GI50 MCF. Type of experiment: cell-based. In a few lines:
as §1

Experiment [14] concerns MDA-MB-231 (breast cancer cells). Put plainly: MTT cancer cell growth inhibition. Particulars: Homo sapiens, MDA-MB-231, 72 h, read-out: GI50 MDA-MB-231, MTT, 72 hours incubation, MDA-MB-231 cells. Type of experiment: cell-based. In a few lines: as §1
In experiment [15] the test system is MOLT-4 (human acute lymphoblastic leukemia cells). Put plainly: MTT cancer cell growth inhibition. Type of experiment: cell-based. The settings on record: Homo sapiens, MOLT-4, 72 h, MOLT-4 cells, MTT, 72 hours incubation; read-out: GI50 Mol. In short, it runs like this: as §1
In experiment [16] the test system is N-87 (human gastric cancer cells). The experiment is described as follows: MTT cancer cell growth inhibition. Type of experiment: cell-based. The settings on record: Homo sapiens, 72 h, MTT, 72 hours incubation, N-87 cells; read-out: GI50 N-87. In short, it runs like this: as §1
In experiment [17] the test system is PANC-1 (Pac-1, human pancreatic cancer cells). The experiment is described as follows: MTT cancer cell growth inhibition. Type of experiment: cell-based. Particulars: Homo sapiens, PANC-1, 72 h, PANC-1 cells, MTT, 72 hours incubation; read-out: GI50 PAN. In a few lines:
as §1

Experiment [18] deals with SGC-7901 (human gastric cancer cells). The experiment is described as follows: MTT cancer cell growth inhibition. It is filed as cell-based. The settings on record: Homo sapiens, SGC-7901, 72 h, MTT, 72 hours incubation, SGC-7901 cells; read-out: GI50 SGC-7901. In a few lines:
as §1

For experiment [19], the system named is U937 (human leukemia cells). Put plainly: MTT cancer cell growth inhibition. It is filed as cell-based. The settings on record: Homo sapiens, U-937, 72 h, U937 cells, MTT, 72 hours incubation; read-out: GI50 U93. In a few lines:
as §1

Experiment [20] concerns lncap (prostate cancer cells). The experiment is described as follows: MTT cancer cell growth inhibition. Type of experiment: cell-based. The settings on record: Homo sapiens, LNCaP, 72 h, lncap cells, MTT, 72 hours incubation; read-out: GI50 lnca. In short, it runs like this: as §1

Molecules are shown by their SMILES.

Broadly, the GI50 is the concentration giving 50% growth inhibition.

Regarding `C=C1NC(=O)c2nc(ccc2SC)CNC(=O)C[C@@H](/C=C/CCSC(C)=O)OC(=O)[C@H](C(C)C)NC1=O` [Compound 204], at HDAC7, the “IC50 HDAC7” value was “no activity”. Further, the GI50 in experiment [1] is 30 nM; in experiment [2] it was 20 nM; in experiment [3], 36 nM; in experiment [4], 50 nM; in experiment [5] it was 67 nM; in experiment [6], 37 nM. For the same molecule, the GI50 in experiment [7] was found to be 30 nM; in [8], 60 nM; in experiment [9] it was 83 nM; in [10] it was 28 nM; in [11], 63 nM; in [12] it was 19 nM. The GI50 in experiment [13] amounted to 30 nM; in experiment [14], 56 nM; in experiment [15], 40 nM; in [16], 28 nM; in [17] it was 20 nM; in experiment [18], 73 nM. For the same molecule, the GI50 in experiment [19] was found to be 20 nM; in experiment [20], 50 nM.
For the molecule `C/C=C1\NC(=O)c2ccc(SCC)c(n2)CNC(=O)C[C@@H](/C=C/CCSC(=O)CCCCC)OC(=O)[C@H](C(C)C)NC1=O` [Compound 255], the “IC50 (μM) HDAC7” value against HDAC7 is “no activity”. Besides, the GI50 in experiment [1] was 30 nM; in experiment [2], 30 nM; in [3] it was 35 nM; in experiment [4] it was 40 nM; in experiment [5], 68 nM; in experiment [6], 57 nM. Further, the GI50 in experiment [7] came to 60 nM; in experiment [8], 10 nM; in [9], 45 nM; in [10] it was 56 nM; in experiment [11] it was 32 nM; in experiment [12] it was 37 nM. The GI50 came out at 80 nM in [13]; 23 nM in experiment [14]; 50 nM in experiment [15]; 51 nM in [16]; 40 nM in experiment [17]; 48 nM in experiment [18]. Also, the GI50 in [19] worked out at 20 nM; in experiment [20], 50 nM.
As for `C/C=C1\NC(=O)c2cc(SC)cc(n2)CNC(=O)C[C@@H](/C=C/CCS)OC(=O)[C@H](CC)NC1=O` [Compound 230], the “IC50 HDAC7” value at HDAC7 is “no activity”. Moreover, the GI50 in [1] was 20 nM; in [2], 30 nM; in experiment [3], 23 nM; in experiment [4] it was 50 nM; in experiment [5], 35 nM; in experiment [6] it was 35 nM. Further, the GI50 came out at 20 nM in experiment [7]; 20 nM in experiment [8]; 91 nM in [9]; 23 nM in experiment [10]; 26 nM in experiment [11]; 87 nM in experiment [12]. Further, the GI50 in experiment [13] turned out to be 70 nM; in experiment [14], 83 nM; in [15], 30 nM; in [16], 36 nM; in experiment [17], 30 nM; in experiment [18], 48 nM. Also, the figures for the GI50 in experiment [19] and in experiment [20] were 20 nM and 50 nM, respectively.
For `C/C=C1\NC(=O)c2ccc(SC)c(n2)CNC(=O)C[C@@H](/C=C/CCSC(C)=O)OC(=O)[C@@H](C)NC1=O` [Compound 222], the “IC50 HDAC7” value against HDAC7 is “no activity”. Also, the GI50 amounted to 50 nM in [1]; 40 nM in [2]; 14 nM in experiment [3]; 30 nM in experiment [4]; 83 nM in experiment [5]; 63 nM in experiment [6]. Besides, the concentration for 50% growth inhibition (GI50) was 70 nM in [7]; 20 nM in experiment [8]; 39 nM in [9]; 83 nM in [10]; 43 nM in [11]; 35 nM in [12]. The GI50 in experiment [13] was found to be 70 nM; in [14] it was 52 nM; in [15] it was 30 nM; in [16], 98 nM; in experiment [17], 30 nM; in [18], 47 nM. In addition, the results for the GI50 in experiment [19] and in [20] were 80 nM and 60 nM, respectively.
With `C=C1NC(=O)c2ccc(SC)c(n2)CNC(=O)C[C@@H](/C=C/CCSC(C)=O)OC(=O)[C@H](C)NC1=O` [Compound 212], the “IC50 HDAC7” value against HDAC7 was “no activity”. In addition, the GI50 in experiment [1] was determined as 40 nM; in experiment [2] it was 60 nM; in [3], 39 nM; in experiment [4], 30 nM; in [5], 62 nM; in experiment [6], 48 nM. The GI50 in [7] came to 30 nM; in [8] it was 20 nM; in experiment [9] it was 57 nM; in experiment [10] it was 35 nM; in [11] it was 69 nM; in experiment [12], 37 nM. The GI50 in [13] is 70 nM; in [14] it was 97 nM; in [15] it was 70 nM; in [16], 35 nM; in experiment [17] it was 50 nM; in [18] it was 84 nM. The GI50 in experiment [19] was found to be 60 nM; in experiment [20], 80 nM.
